In the assay the test system is P388 leukemia ip, CD2F1 mice, survival T/C. In words: NCI In Vivo Anticancer Drug Screen. Data for tumor model P388 Leukemia (intraperitoneal) in CD2F1 (CDF1) mice. The note with it: endpoint: median survival time, higher = longer survival. Here is the method:
The antitumor activity of compounds was measured in mice bearing transplantable tumors. Survival or tumor size were measured and the results are expressed as the measurement made in the treated group (T) divided by the measurement made in the vehicle treated control group (C). The tumor model used in this assay is P388 Leukemia (intraperitoneal) in CD2F1 (CDF1) mice

Setting [1] is: dose: 50.0 mg/kg/injection, schedule: Q01DX005 (ip), vehicle: saline with Tween-80.
Setting [2] is: dose: 100.0 mg/kg/injection, schedule: Q01DX005 (ip), vehicle: saline with Tween-80.
Where [3] appears, read: dose: 200.0 mg/kg/injection, schedule: Q01DX005 (ip), vehicle: saline with Tween-80.
Where [4] appears, read: dose: 60.0 mg/kg/injection, schedule: Q01DX005 (ip), vehicle: Klucel (hydroxypropylcellulose) (HPC).
The mark [5] stands for this setting: dose: 120.0 mg/kg/injection, schedule: Q01DX005 (ip), vehicle: Klucel (hydroxypropylcellulose) (HPC).
[6] abbreviates: dose: 50.0 mg/kg/injection, schedule: Q01DX009 (ip), vehicle: saline.
Setting [7] is: dose: 100.0 mg/kg/injection, schedule: Q01DX009 (ip), vehicle: saline.
Setting [8] is: dose: 25.0 mg/kg/injection, schedule: Q01DX009 (ip), vehicle: saline.
Where [9] appears, read: dose: 100.0 mg/kg/injection, schedule: Q01DX009 (ip), vehicle: saline with Tween-80.
The mark [10] stands for this setting: dose: 100.0 mg/kg/injection, schedule: Q04DX002 (ip), vehicle: Klucel (hydroxypropylcellulose) (HPC).
[11] abbreviates: dose: 200.0 mg/kg/injection, schedule: Q04DX002 (ip), vehicle: Klucel (hydroxypropylcellulose) (HPC).
The mark [12] stands for this setting: dose: 100.0 mg/kg/injection, schedule: Q01DX001 (ip), vehicle: saline with Tween-80.
Setting [13] is: dose: 200.0 mg/kg/injection, schedule: Q01DX001 (ip), vehicle: saline with Tween-80.
[14] abbreviates: dose: 400.0 mg/kg/injection, schedule: Q01DX001 (ip), vehicle: saline with Tween-80.
The mark [15] stands for this setting: dose: 50.0 mg/kg/injection, schedule: Q01DX005 (ip), vehicle: Klucel (hydroxypropylcellulose) (HPC).
[16] abbreviates: dose: 100.0 mg/kg/injection, schedule: Q01DX005 (ip), vehicle: Klucel (hydroxypropylcellulose) (HPC).
Setting [17] is: dose: 60.0 mg/kg/injection, schedule: Q01DX005 (ip), vehicle: saline with Tween-80.
[18] abbreviates: dose: 120.0 mg/kg/injection, schedule: Q01DX005 (ip), vehicle: saline with Tween-80.
Where [19] appears, read: dose: 240.0 mg/kg/injection, schedule: Q01DX005 (ip), vehicle: saline with Tween-80.
The mark [20] stands for this setting: dose: 12.5 mg/kg/injection, schedule: Q01DX009 (ip), vehicle: saline.

Values joined by “and” are separate entries in the source; they are usually repeats but may differ in a detail not shown here. Identical values can stand only once. Toxic doses and inconclusive results are not listed.

On to `CS(=O)(=O)O/C=C1\CCc2ccccc2C1=O`, for which the T/C was 98 % of control under setting [1], 98 % of control under setting [2] and 105 % of control under setting [3].

Consider `COc1cc(OC)cc(C2OC3=C(Nc4ccccc4N3)C2=O)c1` (stereo unspecified), for which the T/C runs as follows: under setting [4], 93 % of control; under setting [5], 89 % of control.

Turning to `CCOC(=O)NCCCCC(N)C(=O)O` (stereo unspecified), the T/C is 97 % of control under setting [6]; 102 % of control under setting [7]; 102 % of control (dose: 200.0 mg/kg/injection, schedule: Q01DX009 (ip), vehicle: saline).

For the compound `O=[N+]([O-])c1ccc(C2=C[P+](c3ccccc3)(c3ccccc3)c3ccccc3O2)cc1`, the T/C was 106 % of control (dose: 0.78 mg/kg/injection, schedule: Q01DX005 (ip), vehicle: Klucel (hydroxypropylcellulose) (HPC)); 115 % of control (dose: 1.56 mg/kg/injection, schedule: Q01DX005 (ip), vehicle: Klucel (hydroxypropylcellulose) (HPC)); 117 % of control (dose: 3.12 mg/kg/injection, schedule: Q01DX005 (ip), vehicle: Klucel (hydroxypropylcellulose) (HPC)); 112 % of control (dose: 6.25 mg/kg/injection, schedule: Q01DX005 (ip), vehicle: Klucel (hydroxypropylcellulose) (HPC)).

Regarding `O=C(OCN1C(=O)C2C3C=CC(C2C1=O)C1C2C(=O)N(COC(=O)C4CCCN4)C(=O)C2C31)C1CCCN1` (stereo unspecified), the T/C by setting is: under setting [8], 105 % of control and 108 % of control; under setting [6], 108 % of control; under setting [7], 162 % of control and 205 % of control.

Take `CCO/C=N/NS(=O)(=O)c1ccc(C)cc1`: the T/C (dose: 6.25 mg/kg/injection, schedule: Q01DX009 (ip), vehicle: distilled water + Tween-80) is 108 % of control; the T/C (dose: 12.5 mg/kg/injection, schedule: Q01DX009 (ip), vehicle: distilled water + Tween-80) is 108 % of control; the T/C (dose: 12.5 mg/kg/injection, schedule: Q01DX009 (ip), vehicle: other) is 104 % of control; the T/C (dose: 12.5 mg/kg/injection, schedule: Q01DX009 (ip), vehicle: saline with Tween-80) was 105 % of control; the T/C (dose: 25.0 mg/kg/injection, schedule: Q01DX009 (ip), vehicle: saline with Tween-80) is 98 % of control; the T/C (dose: 50.0 mg/kg/injection, schedule: Q01DX009 (ip), vehicle: other) is 104 % of control. For the same compound, the T/C is, setting by setting: (dose: 50.0 mg/kg/injection, schedule: Q01DX009 (ip), vehicle: saline with Tween-80) 96 % of control; (dose: 100.0 mg/kg/injection, schedule: Q01DX009 (ip), vehicle: other) 98 % of control; under setting [9], 92 % of control; (dose: 200.0 mg/kg/injection, schedule: Q01DX009 (ip), vehicle: other) 106 % of control.

Consider `CC1CCC(C(=O)C2CCCCC2CC2CCCCC2)CC1` (stereo unspecified), for which the T/C is, setting by setting: under setting [1], 105 % of control; under setting [2], 102 % of control; under setting [3], 96 % of control.

Regarding `C=COC(=O)C(Cc1ccc(F)cc1)NC(=O)OCc1ccccc1` (stereo unspecified), the T/C under setting [10] is 103 % of control; the T/C under setting [11] is 97 % of control; the T/C (dose: 400.0 mg/kg/injection, schedule: Q04DX002 (ip), vehicle: Klucel (hydroxypropylcellulose) (HPC)) is 97 % of control.

Turning to `CC1=C(O)c2[nH]c(Cl)c(C=O)c2C(=O)C1=O`, the T/C by setting is: under setting [12], 100 % of control; under setting [13], 98 % of control; under setting [14], 98 % of control.

In the case of `[CH3][Sn]([CH3])([n]1cc(CC(=O)O)c2ccccc21)[n]1cc(CC(=O)O)c2ccccc21`, the T/C reads like this: under setting [15], 116 % of control; under setting [16], 108 % of control.

Turning to `Cc1ccccc1N=c1c2cnn(C)c2ncn1-c1ccccc1C`, the T/C reads like this: under setting [15], 96 % of control; under setting [16], 96 % of control; (dose: 200.0 mg/kg/injection, schedule: Q01DX005 (ip), vehicle: Klucel (hydroxypropylcellulose) (HPC)) 93 % of control.

For the compound `O=C1Nc2ccccc2C12OCCS2` (stereo unspecified), the T/C under setting [17] was 91 % of control, the T/C under setting [18] was 98 % of control and the T/C under setting [19] is 92 % of control.

Turning to `O=C(N1CCOCC1)C12OC3CC(CC(C3)O1)O2`, the T/C is 102 % of control (dose: 60.0 mg/kg/injection, schedule: Q01DX005 (ip), vehicle: saline); 104 % of control (dose: 120.0 mg/kg/injection, schedule: Q01DX005 (ip), vehicle: saline); 105 % of control (dose: 240.0 mg/kg/injection, schedule: Q01DX005 (ip), vehicle: saline).

Turning to `Cc1cc(O)c(N=Nc2ccc(C(=O)O)cc2)cc1C`, the T/C reads like this: under setting [9], 100 % of control; (dose: 100.0 mg/kg/injection, schedule: Q04DX003 (ip), vehicle: saline with Tween-80) 90 % of control; (dose: 200.0 mg/kg/injection, schedule: Q01DX009 (ip), vehicle: saline with Tween-80) 95 % of control; (dose: 400.0 mg/kg/injection, schedule: Q01DX009 (ip), vehicle: saline with Tween-80) 95 % of control; (dose: 400.0 mg/kg/injection, schedule: Q04DX003 (ip), vehicle: saline with Tween-80) 90 % of control.

In the case of `NNC(=O)C(NC(=O)c1ccccc1)C(N)=O` (stereo unspecified), the T/C (dose: 100.0 mg/kg/injection, schedule: Q04DX003 (ip), vehicle: saline) was 95 % of control; the T/C (dose: 200.0 mg/kg/injection, schedule: Q04DX003 (ip), vehicle: saline) was 95 % of control; the T/C (dose: 400.0 mg/kg/injection, schedule: Q04DX003 (ip), vehicle: saline) is 94 % of control.

Regarding `CCOC1(C)CC(c2cc(OC)c(OC)c(OC)c2)c2cc3c(cc2O1)OCO3` (stereo unspecified), the T/C was 96 % of control under setting [4]; 93 % of control under setting [5]; 92 % of control (dose: 240.0 mg/kg/injection, schedule: Q01DX005 (ip), vehicle: Klucel (hydroxypropylcellulose) (HPC)).

With `Cc1sc2ccccc2c(=O)c1CCl`, the T/C reads like this: under setting [17], 111 % of control; under setting [18], 104 % of control.

As for `CC1=C(C#N)C(=O)N(C)C(=O)C1(Cl)Cl`, the T/C under setting [10] was 98 % of control and the T/C under setting [11] is 98 % of control.

With `CC(C)c1nc(C=O)c(C=O)n1Cc1ccccc1`, the T/C under setting [17] was 97 % of control, the T/C under setting [18] is 92 % of control and the T/C under setting [19] is 97 % of control.

In the case of `O=C1CS(=O)(=O)C(c2ccccc2Cl)N1N1C(=O)CS(=O)(=O)C1c1ccccc1Cl` (stereo unspecified), the T/C runs as follows: under setting [1], 96 % of control; under setting [2], 90 % of control; under setting [3], 89 % of control.

`CN(C)c1cccc2c(S(=O)(=O)NCCCCCCCCCCCCNS(=O)(=O)c3cccc4c(N(C)C)cccc34)cccc12`: the T/C by setting is: (dose: 15.0 mg/kg/injection, schedule: Q01DX005 (ip), vehicle: saline with Tween-80) 96 % of control; (dose: 30.0 mg/kg/injection, schedule: Q01DX005 (ip), vehicle: saline with Tween-80) 92 % of control; under setting [17], 87 % of control; under setting [19], 88 % of control.

Turning to `COC1=CC(=O)C(CO)=CC1=O`, the T/C is, setting by setting: (dose: 3.12 mg/kg/injection, schedule: Q01DX009 (ip), vehicle: saline) 104 % of control; (dose: 6.25 mg/kg/injection, schedule: Q01DX009 (ip), vehicle: saline) 103 % of control and 104 % of control; under setting [20], 104 % of control and 91 % of control.

With `CC(=N)C(C#N)C(=S)S` (stereo unspecified), the T/C (dose: 50.0 mg/kg/injection, schedule: Q01DX009 (ip), vehicle: Klucel (hydroxypropylcellulose) (HPC)) was 102 % of control; the T/C (dose: 100.0 mg/kg/injection, schedule: Q01DX009 (ip), vehicle: Klucel (hydroxypropylcellulose) (HPC)) was 86 % of control; the T/C (dose: 200.0 mg/kg/injection, schedule: Q01DX009 (ip), vehicle: Klucel (hydroxypropylcellulose) (HPC)) was 89 % of control.

As to `CCN(CC)C(=NC(C)C)c1ccccc1`, the T/C runs as follows: under setting [20], 98 % of control; under setting [8], 94 % of control.

With `O=C(Nc1ccccc1)Nc1nnnc2ccccc12`, the T/C reads like this: under setting [12], 100 % of control; under setting [13], 95 % of control; under setting [14], 90 % of control.

The record behind these values is PubChem BioAssay AID330 (DTP/NCI, 2004).
